Values quoted from earlier work in PubChem BioAssay AID1259409 (Chemical Carcinogenesis Research Information System (CCRIS), 2018).

System: rodent chemically induced tumor inhibition, incidence and multiplicity
Assay: CCRIS tumor inhibitor studies
Conditions: Species: RAT, Promoter: NONE USED

SMILES	tumour outcome (control, treated, inhibition, significance) (Carcinogen: AZOXYMETHANE, 25843-45-2, Dose [Inhibitor]: 0.1 MG/KG BW 1/2D IN DEPOT FORM BEGINNING 3 WK PRIOR TO FIRST CARCINOGEN DOSE (STUDY DURATION: 40 WK), Route [Inhibitor]: SUBCUTANEOUS, Strain/Sex: WISTAR/MALE, Target Tissue: Type of Lesion: COLON: TUMOR, Dose [Carcinogen]: 7.4 MG/KG BW IN 0.9% SALINE SOLUTION 1/WK FOR 10 WK)	tumour outcome (control, treated, inhibition, significance) (Carcinogen: N-METHYL-N'-NITRO-N-NITROSOGUANIDINE, 70-25-7, Dose [Inhibitor]: 0, 0.075 MG/KG 1/2 D BEGINNING POST CARCINOGEN TREATMENT (STUDY DURATION: 52 WK), Route [Inhibitor]: SUBCUTANEOUS, Strain/Sex: WISTAR/MALE, Target Tissue: Type of Lesion: STOMACH: ADENOCARCINOMA, Dose [Carcinogen]: 75 UG/ML IN DRINKING WATER FOR 25 WK)	tumour outcome (control, treated, inhibition, significance) (Carcinogen: N-METHYL-N'-NITRO-N-NITROSOGUANIDINE, 70-25-7, Dose [Inhibitor]: 0, 0.1 MG/KG IN OLIVE OIL SUSPENSION 1/D BEGINNING 1 WK POST LAST CARCINOGEN DOSE AND CONTINUING FOR DURATION OF STUDY (, Strain/Sex: WISTAR/MALE, Target Tissue: Type of Lesion: GLANDULAR STOMACH: ADENOCARCINOMA, Dose [Carcinogen]: 50 UG/ML IN DRINKING WATER FOR 25 WK)	tumour outcome (control, treated, inhibition, significance) (Carcinogen: 7,12-DIMETHYLBENZ[A]ANTHRACENE, 57-97-6, Dose [Inhibitor]: 0, 10 I.U. FOR 7 D BEGINNING 3 D PRIOR TO CARCINOGEN DOSE (STUDY DURATION: 6 MO), Route [Inhibitor]: SUBCUTANEOUS, Strain/Sex: SWISS/FEMALE, Target Tissue: Type of Lesion: MAMMARY GLAND: TUMOR, Dose [Carcinogen]: 20 MG IN 4 ML OLIVE OIL ONCE)
CN(C)C(=O)Oc1cccc([N+](C)(C)C)c1	18/20 (90%), 9/19 (47%), 47%, p<0.02	16/20 (80%), 7/18 (39%), 51%, p<0.05	15/18 (83%), 7/19 (37%), 55%, p<0.02	
CC[C@@H](C)[C@H](NC(=O)CN)C(=O)N[C@H](C(=O)N[C@@H](CCC(=O)O)C(=O)N[C@@H](CCC(N)=O)C(=O)N[C@H]1CSSC[C@H]2NC(=O)[C@H]([C@H](C)CC)NC(=O)[C@H](CO)NC(=O)[C@H]([C@H](C)O)NC(=O)[C@H](CSSC[C@H](NC(=O)[C@H](CC(C)C)NC(=O)[C@H](Cc3c[nH]cn3)NC(=O)[C@H](CCC(N)=O)NC(=O)[C@@H](NC(=O)[C@@H](NC(=O)[C@@H](N)Cc3ccccc3)C(C)C)C(N)=O)C(=O)NCC(=O)N[C@@H](CO)C(=O)N[C@@H](Cc3c[nH]cn3)C(=O)N[C@@H](CC(C)C)C(=O)N[C@@H](C(C)C)C(=O)N[C@@H](CCC(=O)O)C(=O)N[C@@H](C)C(=O)N[C@@H](CC(C)C)C(=O)N[C@@H](Cc3ccc(O)cc3)C(=O)N[C@@H](CC(C)C)C(=O)N[C@@H](C(C)C)C(=O)N[C@H](C(=O)NCC(=O)N[C@@H](CCC(=O)O)C(=O)N[C@@H](CCCNC(=N)N)C(=O)NCC(=O)N[C@@H](Cc3ccccc3)C(=O)N[C@@H](Cc3ccccc3)C(=O)N[C@@H](Cc3ccc(O)cc3)C(=O)N[C@H](C(=O)N3CCC[C@H]3C(=O)N[C@@H](CCCCN)C(=O)N[C@H](C(=O)O)[C@H](C)O)[C@H](C)O)CSSC[C@@H](C(=O)N[C@@H](CC(N)=O)C(=O)O)NC(=O)[C@H](Cc3ccc(O)cc3)NC(=O)[C@H](CC(N)=O)NC(=O)[C@H](CCC(=O)O)NC(=O)[C@H](CC(C)C)NC(=O)[C@H](CCC(N)=O)NC(=O)[C@H](Cc3ccc(O)cc3)NC(=O)[C@H](CC(C)C)NC(=O)[C@H](CO)NC2=O)NC1=O)C(C)C				22/33 (67%), 6/32 (19%), 72%, not calculated
